Experiment [1] has as its system MAM-treated rats. The following applies: cited from earlier work.
Experiment [2] has as its system Memory-impaired aged rats. The experiment can be described thus: Radial Arm Maze task, 2-hr delay, acute brivaracetam or seletracetam. The experiment is classed as in vivo, rat. To be noted: 0.0625-4 mg/kg i.p. 30-40 min before test; repeated measures ANOVA (brivaracetam p=0.039, seletracetam p=0.009). The method, then: (§1) The radial arm maze experiments uses acute administration of seletracetam (0-4 mg/kg), brivaracetam (0-4 mg/kg), or saline vehicle given by intraperitoneal injection (in a volume of 1 ml/kg) 30-40 min prior to test sessions. In the chronic treatment experiment, memory-impaired aged rats are implanted subcutaneously in the intrascapular region with osmotic mini-pumps (ALZET, Durect Corporation, Cupertino, Calif.) with brivaracetam (2 mg/kg/day) or saline vehicle starting two weeks prior to assessment in the water maze.
A radial arm maze (RAM) task is used to assess effects of acute drug treatment with seletracetam and brivaracetam. This protocol allows within-subject assessment across drugs at different doses. The radial maze consists of eight arms projecting from each side of an octagonal center platform, with a food well located at the distal end of each arm. Plexiglas blocks can be positioned to prevent entry into any arm. Extra-maze cues are provided in the room surrounding the maze and illumination is provided by an overhead light.
Pre-training, as described in detail in Chappell et al. Neuropharmacology 37: 481-487, (1998), consists of habituation, standard win-shift training, and win-shift training with delays interposed between information and memory test phases. […]

The test system of experiment [3] is Memory-impaired aged rats. As to the kind of experiment: water maze probe test after chronic brivaracetam (osmotic mini-pumps). The experiment is classed as in vivo, rat. To be noted: 2 mg/kg/day. The method, then:
as §1
Rats are trained and tested in a novel water maze environment to assess the effect of drug treatment. The water maze used here is housed in a different building and is surrounded by curtains with a novel set of patterns relative to the maze used for initial assessment of cognitive status. The training protocol consists of 6 trials per day for 2 days to locate a submerged escape platform. On each trial, a rat is released in the maze from one of four equally spaced starting positions around the perimeter of the pool. The starting position varies from trial to trial. […] The rat is then removed from the platform and placed in a holding cage for another 40 s before the next trial. Approximately 24 hrs after the last training trial, a probe test in the absence of the escape platform is given to assess spatial memory.

Experiment [4] has as its system MAM-treated rats. To be noted: rat, in vivo; cited from earlier work.
The test system of another experiment is aged-impaired (AI) rats. The experiment can be described thus: eight-arm Radial Arm Maze task, one-hour delay (levetiracetam, valproate, combination). The experiment is classed as in vivo, rat. The following applies: valproate on its own. The method, then:
The effects of levetiracetam on the spatial memory retention of aged-impaired (AI) rats are assessed in a Radial Arm Maze (RAM) behavioral task using vehicle control and five different dosage levels of levetiracetam (1.25 mg/kg/day, 2.5 mg/kg/day, 5 mg/kg/day, 10 mg/kg/day and 20 mg/kg/day). RAM behavioral tasks are preformed on ten AI rats. All six treatment conditions are tested on all ten rats, as described above for the MWM test. The RAM apparatus used consists of eight equidistantly-spaced arms. An elevated maze arm (7 cm width×75 cm length) projects from each facet of an octagonal center platform (30 cm diameter, 51.5 cm height). Clear side walls on the arms are 10 cm high and are angled at 65° to form a trough. A food well (4 cm diameter, 2 cm deep) is located at the distal end of each arm. Froot Loops™ (Kellogg Company) are used as rewards. Blocks constructed of Plexiglas™ (30 cm height×12 cm width) can be positioned to prevent entry to any arm. Numerous extra maze cues surrounding the apparatus are also provided. The AI rats are initially subjected to a pre-training test (Chappell et al. Neuropharmacology 37: 481-487, 1998). The pre-training test consists of a habituation phase (4 days), a training phase on the standard win-shift task (18 days) and another training phase (14 days) in which a brief delay is imposed between presentation of a subset of arms designated by the experimenter (e.g., 5 arms available and 3 arms blocked) and completion of the eight-arm win-shift task (i.e., with all eight arms available). In the habituation phase, rats are familiarized to the maze for an 8-minute session on four consecutive days. In each of these sessions food rewards are scattered on the RAM, initially on the center platform and arms and then progressively confined to the arms. After this habituation phase, a standard training protocol is used, in which a food pellet is located at the end of each arm. Rats receive one trial each day for 18 days. Each daily trial terminates when all eight food pellets have been obtained or when either 16 choices are made or 15 minutes had elapsed. After completion of this training phase, a second training phase is carried out in which the memory demand is increased by imposing a brief delay during the trial. At the beginning of each trial, three arms of the eight-arm maze are blocked. Rats are allowed to obtain food on the five arms to which access is permitted during this initial ‘information phase’ of the trial. Rats are then removed from the maze for 60 seconds, during which time the barriers on the maze are removed, thus allowing access to all eight arms. Rats are then placed back onto the center platform and allowed to obtain the remaining food rewards during this ‘retention test’ phase of the trial. The identity and configuration of the blocked arms varies across trials. The number of “errors” the AI rats make during the retention test phase is tracked. An error occurs in the trial if the rats enter an arm from which food had already been retrieved in the pre-delay component of the trial, or if it re-visits an arm in the post-delay session that has already been visited. After completion of the pre-training test, rats are subjected to trials with more extended delay intervals, i.e., a one-hour delay, between the information phase (presentation with some blocked arms) and the retention test (presentation of all arms). During the delay interval, rats remain off to the side of the maze in the testing room, on carts in their individual home cages. AI rats are pretreated 30-40 minutes before daily trials with a one-time shot of the following six conditions: 1) vehicle control (0.9% saline solution); 2) levetiracetam (1.25 mg/kg/day); 3) levetiracetam (2.5 mg/kg/day); 4) levetiracetam (5 mg/kg/day); 5) levetiracetam (10 mg/kg/day); 6) levetiracetam (20 mg/kg/day); […] Injections are given every other day with intervening washout days. Each AI rat is treated with all six conditions within 23 days of testing. […]

These results are taken from US10154988B2, “Methods and compositions for treating schizophrenia” (The Johns Hopkins University, priority 2012, dated 2018).

In the case of `C#Cc1ccc2c(c1)C(c1ccccc1F)=N[C@H](C)c1c(C(=O)OCC)ncn1-2` [SH-053-2′F—R—CH3], in the experiment with MAM-treated rats [1] (rat, in vivo), the “increased locomotor response to amphetamine in MAM-treated rats” value was “reduced”. Moreover, the “cortical-evoked responses of HPC neurons” value in the experiment on MAM-treated rats [1] (saline-treated and MAM-treated animals) is “diminished cortical-evoked responses”. For the same compound, in the experiment with MAM-treated rats [1] (systemic or infused into the ventral HPC, to levels of saline-treated rats), the “number of spontaneously active DA neurons in the VTA of MAM rats” value was “reduces the number of spontaneously active DA neurons”.
With `CCC[C@@H]1CC(=O)N([C@@H](CC)C(N)=O)C1` [brivaracetam], the “number of errors in the retention phase after the 2-hr delay, effect of dose” value in experiment [2] is listed as “significant effect as a function of dose”. The “spatial bias for the target quadrant compared to the other quadrants” value in experiment [3] (14 days, n=3/group, t(2)=10.000, p=0.010) is on record as “significant spatial bias”. Besides, the “time in the target annulus versus vehicle-treated rats” value in experiment [3] (t(4)=3.109, p=0.036) is “significantly more time in the target annulus”. The “time in the target quadrant versus vehicle-treated rats” value in experiment [3] (t(4)=3.881, p=0.018) was “significantly more time in the target quadrant”.
In the case of `CC[C@@H](C(N)=O)N1C[C@H](C=C(F)F)CC1=O` [seletracetam], the “number of errors in the retention phase after the 2-hr delay, effect of dose” value in experiment [2] is listed as “significant effect as a function of dose”.
With `NC1=N[C@H](O)[C@H]2[C@H]3O[C@]4(O)O[C@@H]([C@@H](O)[C@@]2(N1)[C@@H]4O)[C@]3(O)CO` [tetrodotoxin], in the experiment with MAM-treated rats [4], the “augmented amphetamine-induced locomotor behavior” value is listed as “normalized” and the “elevated DA neuron population activity” value was “completely reversed”.
For `CCCC(CCC)C(=O)O` [valproate], the “reducing the number of errors in the radial arm maze” value in the experiment with aged-impaired (AI) rats (25 mg/kg subcutaneous) is reported as “not at 25 mg/kg or 50 mg/kg”; in the experiment with aged-impaired (AI) rats (50 mg/kg subcutaneous) it was “not at 25 mg/kg or 50 mg/kg”; with aged-impaired (AI) rats (100 mg/kg subcutaneous), “effective at 100 mg/kg”.
